Data as given in publication PMC4685510, “A Cell Biologist’s Field Guide to Aurora Kinase Inhibitors” (Frontiers in Oncology, 2015).

Tests used:
Assay in all cases: biochemical
Assay type in all cases: biochemical
[1] = target: 363 human kinases (including Aurora A/B/C) (Homo sapiens, UniProt P06241); conditions: FYN, read-out: % Enzyme Activity (relative to DMSO controls); for remaining activity at 0.1 µM: 100 nM
Excerpt: (§1) However, the Aurora A/B selectivity ratios derived from our in vitro and in vivo data can be compared to prioritize inhibitors.

[2] = target: 363 human kinases (including Aurora A/B/C) (Homo sapiens, UniProt P22455); conditions: FGFR4, [ATP] 100 µM, read-out: % Enzyme Activity (relative to DMSO controls); for remaining activity at 0.1 µM: 100 nM
Excerpt: as §1

[3] = target: T1, 363 human kinases (including Aurora A/B/C) (Homo sapiens, UniProt P46734); conditions: MEK3, read-out: % Enzyme Activity (relative to DMSO controls); for remaining activity at 0.1 µM: 100 nM
T1 sequence (P46734 1-347): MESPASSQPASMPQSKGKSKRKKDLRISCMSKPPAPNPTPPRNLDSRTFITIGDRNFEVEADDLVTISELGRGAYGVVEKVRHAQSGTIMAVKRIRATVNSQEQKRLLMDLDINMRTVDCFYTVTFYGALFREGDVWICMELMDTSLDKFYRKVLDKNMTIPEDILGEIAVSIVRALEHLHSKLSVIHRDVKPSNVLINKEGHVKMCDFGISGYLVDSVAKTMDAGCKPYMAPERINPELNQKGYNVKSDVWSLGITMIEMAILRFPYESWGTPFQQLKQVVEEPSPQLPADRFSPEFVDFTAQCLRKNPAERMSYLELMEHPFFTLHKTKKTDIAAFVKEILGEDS
Excerpt: as §1

[4] = target: 363 human kinases (including Aurora A/B/C) (Homo sapiens, UniProt P51617); conditions: IRAK1, read-out: % Enzyme Activity (relative to DMSO controls); for remaining activity at 0.1 µM: 100 nM
Excerpt: as §1

[5] = target: 363 human kinases (including Aurora A/B/C) (Homo sapiens, UniProt P53355); conditions: DAPK1, [ATP] 10 µM, read-out: % Enzyme Activity (relative to DMSO controls); for remaining activity at 0.1 µM: 100 nM
Excerpt: as §1

[6] = target: 363 human kinases (including Aurora A/B/C) (Homo sapiens, UniProt Q00536); conditions: CDK16/cyclin Y (PCTAIRE), [ATP] 15 µM, read-out: % Enzyme Activity (relative to DMSO controls); for remaining activity at 0.1 µM: 100 nM
Chain of 363 human kinases (including Aurora A/B/C) (Homo sapiens, UniProt Q00536) (Q00536 whole entry): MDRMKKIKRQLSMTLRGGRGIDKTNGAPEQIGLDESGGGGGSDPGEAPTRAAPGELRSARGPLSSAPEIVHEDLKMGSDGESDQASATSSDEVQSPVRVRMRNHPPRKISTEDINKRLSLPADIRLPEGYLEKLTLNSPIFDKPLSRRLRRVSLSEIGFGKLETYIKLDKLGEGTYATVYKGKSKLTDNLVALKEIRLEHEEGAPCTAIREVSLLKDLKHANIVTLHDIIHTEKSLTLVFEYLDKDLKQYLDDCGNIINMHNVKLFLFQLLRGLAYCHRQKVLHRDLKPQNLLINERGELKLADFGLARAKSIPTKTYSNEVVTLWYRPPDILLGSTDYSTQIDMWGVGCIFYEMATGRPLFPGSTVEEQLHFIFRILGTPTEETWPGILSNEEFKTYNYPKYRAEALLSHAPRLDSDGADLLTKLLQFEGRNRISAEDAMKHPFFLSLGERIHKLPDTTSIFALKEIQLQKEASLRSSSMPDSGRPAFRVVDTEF
Excerpt: as §1

[7] = target: 363 human kinases (including Aurora A/B/C) (Homo sapiens, UniProt Q13557); conditions: CAMK2d, [ATP] 30 µM, read-out: % Enzyme Activity (relative to DMSO controls); for remaining activity at 0.1 µM: 100 nM
Chain of 363 human kinases (including Aurora A/B/C) (Homo sapiens, UniProt Q13557) (Q13557 whole entry): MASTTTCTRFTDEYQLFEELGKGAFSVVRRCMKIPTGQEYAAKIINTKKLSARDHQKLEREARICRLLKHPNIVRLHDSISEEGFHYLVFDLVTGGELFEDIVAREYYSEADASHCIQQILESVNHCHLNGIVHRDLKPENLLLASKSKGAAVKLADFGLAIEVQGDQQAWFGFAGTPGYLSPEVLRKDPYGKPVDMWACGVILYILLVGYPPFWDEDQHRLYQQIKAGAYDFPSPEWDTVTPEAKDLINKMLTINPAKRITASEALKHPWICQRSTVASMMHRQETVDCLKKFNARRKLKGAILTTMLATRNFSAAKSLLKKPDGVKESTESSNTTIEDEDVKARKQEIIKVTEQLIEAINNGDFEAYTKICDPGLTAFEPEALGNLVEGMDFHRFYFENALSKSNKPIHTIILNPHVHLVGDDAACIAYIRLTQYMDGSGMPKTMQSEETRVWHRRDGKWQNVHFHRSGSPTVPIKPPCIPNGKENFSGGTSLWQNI
Excerpt: as §1

[8] = target: 363 human kinases (including Aurora A/B/C) (Homo sapiens, UniProt Q15208); conditions: STK38/NDR1, read-out: % Enzyme Activity (relative to DMSO controls); for remaining activity at 0.1 µM: 100 nM
Excerpt: as §1

[9] = target: 363 human kinases (including Aurora A/B/C) (Homo sapiens, UniProt Q6DT37); conditions: DMPK2, [ATP] 2.5 µM, read-out: % Enzyme Activity (relative to DMSO controls); for remaining activity at 0.1 µM: 100 nM
Chain of 363 human kinases (including Aurora A/B/C) (Homo sapiens, UniProt Q6DT37) (Q6DT37 whole entry): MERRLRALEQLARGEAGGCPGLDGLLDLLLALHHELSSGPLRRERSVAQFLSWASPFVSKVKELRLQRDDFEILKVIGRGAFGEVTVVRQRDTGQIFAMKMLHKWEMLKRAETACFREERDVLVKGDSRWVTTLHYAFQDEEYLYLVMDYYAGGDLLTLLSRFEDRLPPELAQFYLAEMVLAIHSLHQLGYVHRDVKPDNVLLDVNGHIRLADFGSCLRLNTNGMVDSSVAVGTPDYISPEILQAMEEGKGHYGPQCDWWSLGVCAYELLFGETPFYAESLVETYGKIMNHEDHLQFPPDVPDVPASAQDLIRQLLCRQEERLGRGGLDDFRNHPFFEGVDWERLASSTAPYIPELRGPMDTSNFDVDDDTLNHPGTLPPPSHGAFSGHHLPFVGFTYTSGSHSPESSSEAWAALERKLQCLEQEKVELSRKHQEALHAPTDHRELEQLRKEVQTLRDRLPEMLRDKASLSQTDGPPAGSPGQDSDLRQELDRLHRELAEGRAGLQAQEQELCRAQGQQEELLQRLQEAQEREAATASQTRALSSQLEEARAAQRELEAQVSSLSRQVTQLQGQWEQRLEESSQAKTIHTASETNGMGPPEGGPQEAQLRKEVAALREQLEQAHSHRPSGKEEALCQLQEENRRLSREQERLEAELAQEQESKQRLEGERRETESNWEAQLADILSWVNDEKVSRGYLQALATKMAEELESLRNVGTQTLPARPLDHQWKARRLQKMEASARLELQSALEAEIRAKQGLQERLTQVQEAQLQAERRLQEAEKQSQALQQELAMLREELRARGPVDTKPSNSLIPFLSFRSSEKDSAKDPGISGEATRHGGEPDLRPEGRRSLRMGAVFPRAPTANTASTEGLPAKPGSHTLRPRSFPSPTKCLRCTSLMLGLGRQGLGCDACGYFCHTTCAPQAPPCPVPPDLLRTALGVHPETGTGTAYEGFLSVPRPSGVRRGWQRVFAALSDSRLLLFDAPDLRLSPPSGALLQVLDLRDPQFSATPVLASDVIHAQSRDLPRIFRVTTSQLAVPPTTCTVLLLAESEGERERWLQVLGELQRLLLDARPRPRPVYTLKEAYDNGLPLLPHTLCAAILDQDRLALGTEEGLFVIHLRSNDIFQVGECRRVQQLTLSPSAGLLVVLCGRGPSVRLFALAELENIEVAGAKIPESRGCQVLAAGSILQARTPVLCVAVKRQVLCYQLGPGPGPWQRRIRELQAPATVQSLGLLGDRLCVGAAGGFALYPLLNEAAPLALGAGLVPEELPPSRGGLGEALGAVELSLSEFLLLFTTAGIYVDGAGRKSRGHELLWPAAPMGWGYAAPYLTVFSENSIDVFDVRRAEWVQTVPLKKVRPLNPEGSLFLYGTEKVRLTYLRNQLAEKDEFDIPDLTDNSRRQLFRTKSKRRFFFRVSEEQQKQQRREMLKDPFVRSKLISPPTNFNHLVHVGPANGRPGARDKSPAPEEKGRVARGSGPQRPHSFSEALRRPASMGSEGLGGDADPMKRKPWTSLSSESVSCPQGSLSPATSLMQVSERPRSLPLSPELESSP
Excerpt: as §1

[10] = target: 363 human kinases (including Aurora A/B/C) (Homo sapiens, UniProt Q6P5Z2); conditions: PKN3/PRK3, read-out: % Enzyme Activity (relative to DMSO controls); for remaining activity at 0.1 µM: 100 nM
Excerpt: as §1

[11] = target: 363 human kinases (including Aurora A/B/C) (Homo sapiens, UniProt Q8N4C8); conditions: MINK/MINK1, read-out: % Enzyme Activity (relative to DMSO controls); for remaining activity at 0.1 µM: 100 nM
Excerpt: as §1

[12] = target: 363 human kinases (including Aurora A/B/C) (Homo sapiens, UniProt Q96RG2); conditions: PASK, read-out: % Enzyme Activity (relative to DMSO controls); for remaining activity at 0.1 µM: 100 nM
Excerpt: as §1

[13] = target: 363 human kinases (including Aurora A/B/C) (Homo sapiens, UniProt Q9H4B4); conditions: PLK3, read-out: % Enzyme Activity (relative to DMSO controls); for remaining activity at 0.1 µM: 100 nM
Excerpt: as §1

[14] = target: T2, 363 human kinases (including Aurora A/B/C) (Homo sapiens, UniProt Q9NR20); conditions: DYRK4, [ATP] 2.5 µM, read-out: % Enzyme Activity (relative to DMSO controls); for remaining activity at 0.1 µM: 100 nM
T2 sequence (Q9NR20 1-520): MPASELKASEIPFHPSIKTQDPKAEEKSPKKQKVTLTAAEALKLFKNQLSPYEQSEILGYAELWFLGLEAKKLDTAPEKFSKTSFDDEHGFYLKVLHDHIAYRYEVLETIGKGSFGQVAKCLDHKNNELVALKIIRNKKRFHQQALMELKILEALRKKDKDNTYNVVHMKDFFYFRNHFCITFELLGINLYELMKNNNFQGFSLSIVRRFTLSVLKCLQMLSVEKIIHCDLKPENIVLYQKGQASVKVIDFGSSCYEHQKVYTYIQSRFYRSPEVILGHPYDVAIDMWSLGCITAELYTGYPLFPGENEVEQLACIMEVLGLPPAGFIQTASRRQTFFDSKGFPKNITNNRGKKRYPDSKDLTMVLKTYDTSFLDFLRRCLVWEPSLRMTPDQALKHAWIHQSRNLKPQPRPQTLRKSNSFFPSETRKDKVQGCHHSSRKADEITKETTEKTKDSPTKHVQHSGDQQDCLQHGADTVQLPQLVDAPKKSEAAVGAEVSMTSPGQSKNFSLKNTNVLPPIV
Excerpt: as §1

[15] = target: T3, 363 human kinases (including Aurora A/B/C) (Homo sapiens, UniProt Q9NWZ3); conditions: IRAK4, read-out: % Enzyme Activity (relative to DMSO controls); for remaining activity at 0.1 µM: 100 nM
T3 sequence (Q9NWZ3 1-460): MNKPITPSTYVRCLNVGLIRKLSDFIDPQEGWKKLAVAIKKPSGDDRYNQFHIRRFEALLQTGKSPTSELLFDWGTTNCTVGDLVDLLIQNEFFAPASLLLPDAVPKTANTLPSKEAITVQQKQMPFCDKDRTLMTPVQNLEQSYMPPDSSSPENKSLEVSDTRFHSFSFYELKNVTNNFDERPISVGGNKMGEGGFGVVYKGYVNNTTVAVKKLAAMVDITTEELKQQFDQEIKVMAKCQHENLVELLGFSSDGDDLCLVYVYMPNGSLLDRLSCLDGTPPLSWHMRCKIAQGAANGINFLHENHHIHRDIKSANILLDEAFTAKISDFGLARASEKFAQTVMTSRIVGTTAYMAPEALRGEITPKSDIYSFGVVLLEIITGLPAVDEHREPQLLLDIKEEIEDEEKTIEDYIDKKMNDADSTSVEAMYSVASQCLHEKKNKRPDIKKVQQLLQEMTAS
Excerpt: as §1

[16] = target: 363 human kinases (including Aurora A/B/C) (Homo sapiens, UniProt Q9P289); conditions: MST4, read-out: % Enzyme Activity (relative to DMSO controls); for remaining activity at 0.1 µM: 100 nM
Chain of 363 human kinases (including Aurora A/B/C) (Homo sapiens, UniProt Q9P289) (Q9P289 whole entry): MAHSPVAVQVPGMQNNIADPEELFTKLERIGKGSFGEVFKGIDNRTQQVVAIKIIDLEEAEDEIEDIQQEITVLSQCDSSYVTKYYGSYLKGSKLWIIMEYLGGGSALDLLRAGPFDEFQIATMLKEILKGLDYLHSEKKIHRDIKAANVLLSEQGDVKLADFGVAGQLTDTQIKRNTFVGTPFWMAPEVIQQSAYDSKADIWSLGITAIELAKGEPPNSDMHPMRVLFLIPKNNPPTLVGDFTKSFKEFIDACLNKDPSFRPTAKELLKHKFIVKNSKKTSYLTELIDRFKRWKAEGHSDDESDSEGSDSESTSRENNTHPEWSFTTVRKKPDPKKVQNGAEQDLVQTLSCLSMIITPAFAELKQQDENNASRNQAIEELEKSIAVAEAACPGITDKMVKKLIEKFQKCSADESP
Excerpt: as §1

[17] = target: 363 human kinases (including Aurora A/B/C) (Homo sapiens, UniProt Q9Y5S2); conditions: MRCKb/CDC42BPB, read-out: % Enzyme Activity (relative to DMSO controls); for remaining activity at 0.1 µM: 100 nM
Chain of 363 human kinases (including Aurora A/B/C) (Homo sapiens, UniProt Q9Y5S2) (Q9Y5S2 whole entry): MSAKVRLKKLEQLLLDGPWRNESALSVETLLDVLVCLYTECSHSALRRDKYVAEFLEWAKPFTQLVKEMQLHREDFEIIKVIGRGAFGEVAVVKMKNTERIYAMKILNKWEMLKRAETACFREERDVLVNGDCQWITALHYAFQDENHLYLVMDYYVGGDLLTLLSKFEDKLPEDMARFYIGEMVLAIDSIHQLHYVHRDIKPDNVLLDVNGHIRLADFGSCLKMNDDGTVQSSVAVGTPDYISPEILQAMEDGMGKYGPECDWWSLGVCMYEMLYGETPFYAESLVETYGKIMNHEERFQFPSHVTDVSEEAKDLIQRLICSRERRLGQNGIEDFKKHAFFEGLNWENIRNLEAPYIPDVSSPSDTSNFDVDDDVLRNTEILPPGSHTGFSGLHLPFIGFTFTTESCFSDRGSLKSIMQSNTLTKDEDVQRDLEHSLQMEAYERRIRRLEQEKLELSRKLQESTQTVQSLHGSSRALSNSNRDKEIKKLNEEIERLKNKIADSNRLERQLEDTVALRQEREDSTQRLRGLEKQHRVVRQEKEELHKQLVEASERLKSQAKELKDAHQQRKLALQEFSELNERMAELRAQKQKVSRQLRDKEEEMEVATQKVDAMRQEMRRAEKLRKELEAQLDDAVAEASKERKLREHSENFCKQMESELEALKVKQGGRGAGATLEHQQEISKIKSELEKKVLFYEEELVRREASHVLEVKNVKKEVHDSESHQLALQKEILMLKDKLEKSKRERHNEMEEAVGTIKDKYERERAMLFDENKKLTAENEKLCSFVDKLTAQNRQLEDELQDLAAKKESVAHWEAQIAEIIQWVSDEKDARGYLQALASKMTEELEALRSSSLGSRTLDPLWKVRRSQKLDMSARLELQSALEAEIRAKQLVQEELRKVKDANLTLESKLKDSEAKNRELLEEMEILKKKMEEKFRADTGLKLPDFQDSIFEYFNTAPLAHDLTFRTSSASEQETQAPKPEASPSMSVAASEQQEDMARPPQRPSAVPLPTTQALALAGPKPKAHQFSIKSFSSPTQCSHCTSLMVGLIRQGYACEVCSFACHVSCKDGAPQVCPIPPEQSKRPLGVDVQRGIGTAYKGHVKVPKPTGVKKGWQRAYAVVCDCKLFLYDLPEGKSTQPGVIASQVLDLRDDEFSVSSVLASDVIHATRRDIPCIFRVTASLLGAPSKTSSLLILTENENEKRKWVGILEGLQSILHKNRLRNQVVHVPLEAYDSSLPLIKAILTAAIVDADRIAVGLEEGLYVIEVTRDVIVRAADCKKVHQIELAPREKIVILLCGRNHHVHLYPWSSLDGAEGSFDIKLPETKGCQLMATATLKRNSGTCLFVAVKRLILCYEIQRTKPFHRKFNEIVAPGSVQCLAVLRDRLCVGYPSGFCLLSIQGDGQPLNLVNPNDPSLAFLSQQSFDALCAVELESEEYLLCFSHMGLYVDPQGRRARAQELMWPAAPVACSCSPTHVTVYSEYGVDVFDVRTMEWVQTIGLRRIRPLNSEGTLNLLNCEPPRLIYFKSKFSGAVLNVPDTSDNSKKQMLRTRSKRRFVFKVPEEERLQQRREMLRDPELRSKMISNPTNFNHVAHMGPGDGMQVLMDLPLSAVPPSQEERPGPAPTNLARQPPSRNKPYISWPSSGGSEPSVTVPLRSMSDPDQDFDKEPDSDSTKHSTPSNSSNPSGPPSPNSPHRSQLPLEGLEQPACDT
Excerpt: as §1

Row | SMILES | remaining activity at 0.1 µM [1] | remaining activity at 0.1 µM [2] | remaining activity at 0.1 µM [3] | remaining activity at 0.1 µM [4] | remaining activity at 0.1 µM [5] | remaining activity at 0.1 µM [6] | remaining activity at 0.1 µM [7] | remaining activity at 0.1 µM [8] | remaining activity at 0.1 µM [9] | remaining activity at 0.1 µM [10] | remaining activity at 0.1 µM [11] | remaining activity at 0.1 µM [12] | remaining activity at 0.1 µM [13] | remaining activity at 0.1 µM [14] | remaining activity at 0.1 µM [15] | remaining activity at 0.1 µM [16] | remaining activity at 0.1 µM [17] | further results
1 | CCn1cc(-c2ccnc3[nH]c(-c4cccc(CN(C)C)c4)cc23)c(-c2ccc(NC(=O)N(C)C)cc2)n1 [GSK1070916] | 84.3% | 125% | 105% | 122% | 94.7% | 107% | 94.6% | 88% | 89.4% | 107% | 78.3% | 102% | 101% | 95.3% | 84.3% | 76.4% | 103% | –
2 | O=C(O)[C@]1(Cc2cccc(Nc3nccs3)n2)CC[C@@H](Oc2cccc(Cl)c2F)CC1 [MK-5108] | 43.9% | 91.7% | 89.7% | 5.35% | 104% | 83.6% | 101% | 96% | 98.7% | 90.8% | 80% | 100% | 103% | 99.4% | 47.6% | 84% | 90% | remaining activity at 0.5 µM ([1]; 500 nM): 18%; remaining activity at 0.5 µM ([2]; 500 nM): 126%; remaining activity at 0.5 µM ([3]; 500 nM): 99.7%; remaining activity at 0.5 µM ([4]; 500 nM): 1.01%; remaining activity at 0.5 µM ([5]; 500 nM): 101%; remaining activity at 0.5 µM ([6]; 500 nM): 98%; remaining activity at 0.5 µM ([7]; 500 nM): 98.6%; remaining activity at 0.5 µM ([8]; 500 nM): 86.5%; remaining activity at 0.5 µM ([9]; 500 nM): 140%; remaining activity at 0.5 µM ([10]; 500 nM): 88.2%; remaining activity at 0.5 µM ([11]; 500 nM): 53.4%; remaining activity at 0.5 µM ([12]; 500 nM): 104%; remaining activity at 0.5 µM ([13]; 500 nM): 104%; remaining activity at 0.5 µM ([14]; 500 nM): 93.6%; remaining activity at 0.5 µM ([15]; 500 nM): 25.6%; remaining activity at 0.5 µM ([16]; 500 nM): 81.5%; remaining activity at 0.5 µM ([17]; 500 nM): 104%
